Measured values: patent US10947216B2, “Amide compounds and method for making and using” (Rigel Pharmaceuticals, Inc., priority 2016, dated 2021)
pEC50: −log10 of the molar value. Where a name gives a salt, the structure may show the parent alone. Read-outs that look alike come from different tables or passages of the source.

Legend:
IL-23p19 = test: LPS Induced IL23p19 in THP-1 Cells (with IFNγ Primed) Assay; assay type: cell-based, human; details: Homo sapiens, IFNγ (50 ng/mL) primed, 1 hour compound pre-incubation, LPS 1 ug/mL 18 hours, 10 pt, read-out: IL23-p19 ELISA, THP1-IFNy, LPS, 10 pt EC50
How it was run: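 THP-1 cells (50K/well) primed ~18 h with IFNγ (50 ng/mL) in RPMI/10% FBS, then incubated with compound in duplicate for 18 h at 37° C. Supernatant IL-23p19 measured by chemiluminescent sandwich ELISA, giving EC50 by curve fitting. Toxicity assessed in parallel on the remaining cells by Cell Titer Glo.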

IL-23 (p19/p40) = test: IL23-p19 ELISA, dendritic cells (DC differentiated from human PBMC, IFNγ primed), LPS stimulated; assay type: cell-based; details: Dendritic cell, human PBMC-derived dendritic cells, 1 h compound pre-incubation, LPS 1 μg/ml 18 hours, 10 pt
How it was run: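 PBMC-derived DCs (GM-CSF 100 ng/ml + IL-4 20 ng/ml, 7 days) primed 24 h with IFNγ 50 ng/ml, 50K cells/well; compound pre-incubated 1 h at 37° C, then LPS, 18 h. Supernatant IL-23 by p19-capture/p40-detection chemiluminescent ELISA; cytotoxicity by Cell Titer Glo.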

Structure (SMILES) | pEC50 (IL-23p19; THP-1, THP-1 cells) | pEC50 (IL-23 (p19/p40)) | pEC50 (IL-23p19; THP-1 cells) | pEC50 (IL-23 (p19/p40); Homo sapiens)
CC(=O)Nc1ccc(-c2cccc(C(=O)Nc3cn(C)nc3-c3cnccn3)n2)cn1 [Compound I-102, 6′-acetamido-N-(1-methyl-3-(pyrazin-2-yl)-1H-pyrazol-4-yl)-[2,3′-bipyridine]-6-carboxamide] | 4.57 | 5.69 | – | –
O=C(Nc1cn(CCO)nc1-c1ccccn1)c1cccc(-c2ccncc2)n1 [Compound I-108, N-(1-(2-hydroxyethyl)-3-(pyridin-2-yl)-1H-pyrazol-4-yl)-[2,4′-bipyridine]-6-carboxamide formate] | 5.22 | 5.31 | – | –
O=C(Nc1cn(C2COC2)nc1-c1ccccn1)c1cccc(Br)n1 [Compound I-113, 6-bromo-N-(1-(oxetan-3-yl)-3-(pyridin-2-yl)-1H-pyrazol-4-yl)picolinamide] | 5.09 | 4.96 | – | –
Cc1cncc(-c2cccc(C(=O)Nc3cn(C4COC4)nc3-c3ccccn3)n2)c1 [Compound I-114, 5′-methyl-N-(1-(oxetan-3-yl)-3-(pyridin-2-yl)-1H-pyrazol-4-yl)-[2,3′-bipyridine]-6-carboxamide] | 5.75 | 5.63 | – | –
CS(=O)(=O)Nc1cncc(-c2cccc(C(=O)Nc3cn(C4COC4)nc3-c3ccccn3)n2)c1 [Compound I-115, 5′-(methylsulfonamido)-N-(1-(oxetan-3-yl)-3-(pyridin-2-yl)-1H-pyrazol-4-yl)-[2,3′-bipyridine]-6-carboxamide] | 5.66 | 5.12 | – | –
CS(=O)(=O)Nc1cncc(-c2cccc(C(=O)Nc3cn(C4COC4)nc3-c3ccccn3)n2)c1 [Compound I-119, sodium (methylsulfonyl)(6-((1-(oxetan-3-yl)-3-(pyridin-2-yl)-1H-pyrazol-4-yl)carbamoyl)-[2,3′-bipyridine]-5′-yl)amide] | – | – | 5.99 | 6.00
Cc1cncc(-c2ccnc(C(=O)Nc3cn(C)nc3-c3ccccn3)n2)c1 [Compound I-120, N-(1-methyl-3-(pyridin-2-yl)-1H-pyrazol-4-yl)-4-(5-methylpyridin-3-yl)pyrimidine-2-carboxamide] | 4.33 | 5.52 | – | –
Cn1cc(NC(=O)c2nccc(-c3cn[nH]c3)n2)c(-c2ccccn2)n1 [Compound I-124, N-(1-methyl-3-(pyridin-2-yl)-1H-pyrazol-4-yl)-4-(1H-pyrazol-4-yl)pyrimidine-2-carboxamide] | 5.18 | 5.81 | – | –
O=C(Nc1cn(C2COC2)nc1-c1ccccn1)c1cccc(-c2cncc(F)c2)n1 [Compound I-131, 5′-fluoro-N-(1-(oxetan-3-yl)-3-(pyridin-2-yl)-1H-pyrazol-4-yl)-[2,3′-bipyridine]-6-carboxamide] | 5.18 | 4.89 | – | –
O=C(Nc1cn(C2COC2)nc1-c1ccccn1)c1cccc(-c2cncc(C(F)(F)F)c2)n1 [Compound I-132, N-(1-(oxetan-3-yl)-3-(pyridin-2-yl)-1H-pyrazol-4-yl)-5′-(trifluoromethyl)-[2,3′-bipyridine]-6-carboxamide] | 4.26 | 5.11 | – | –
NC(=O)c1cncc(-c2cccc(C(=O)Nc3cn(C4COC4)nc3-c3ccccn3)n2)c1 [Compound I-133, N6-(1-(oxetan-3-yl)-3-(pyridin-2-yl)-1H-pyrazol-4-yl)-[2,3′-bipyridine]-5′,6-dicarboxamide] | 4.96 | 5.18 | – | –
Cn1cc(NC(=O)c2ccnc(-c3cn[nH]c3)n2)c(-c2ccccn2)n1 [Compound I-137, N-(1-methyl-3-(pyridin-2-yl)-1H-pyrazol-4-yl)-2-(1H-pyrazol-4-yl)pyrimidine-4-carboxamide] | 5.40 | 5.30 | – | –
Cn1cc(NC(=O)c2ccnc(-c3cc[nH]n3)n2)c(-c2ccccn2)n1 [Compound I-138, N-(1-methyl-3-(pyridin-2-yl)-1H-pyrazol-4-yl)-2-(1H-pyrazol-3-yl)pyrimidine-4-carboxamide] | 4.53 | 5.93 | – | –
COCCOCCn1cc(NC(=O)c2cccc(-c3ccnc(OC)c3)n2)c(-c2ccccn2)n1 [Compound I-141, 2′-methoxy-N-(1-(2-(2-methoxyethoxy)ethyl)-3-(pyridin-2-yl)-1H-pyrazol-4-yl)-[2,4′-bipyridine]-6-carboxamide formate] | 5.07 | 5.55 | – | –
COCCOCCn1cc(NC(=O)c2cccc(-c3ccnc(C)c3)n2)c(-c2ccccn2)n1 [Compound I-146, N-(1-(2-(2-methoxyethoxy)ethyl)-3-(pyridin-2-yl)-1H-pyrazol-4-yl)-2′-methyl-[2,4′-bipyridine]-6-carboxamide formate] | 5.37 | 5.23 | – | –
COCCOCCn1cc(NC(=O)c2cccc(-c3cc4ccc(OC)cc4[nH]3)n2)c(-c2ccccn2)n1 [Compound I-147, 6-(6-methoxy-1H-indol-2-yl)-N-(1-(2-(2-methoxyethoxy)ethyl)-3-(pyridin-2-yl)-1H-pyrazol-4-yl)picolinamide formate] | 4.39 | 4.97 | – | –
COCCOCCn1cc(NC(=O)c2cccc(-c3cnn(-c4cccc(Cl)c4)c3)n2)c(-c2ccccn2)n1 [Compound I-148, 6-(1-(3-chiorophenyl)-1H-pyrazol-4-yl)-N-(1-(2-(2-methoxyethoxy)ethyl)-3-(pyridin-2-yl)-1H-pyrazol-4-yl)picolinamide formate] | 5.35 | 5.20 | – | –
COCCOCCn1cc(NC(=O)c2cccc(-c3cc[nH]n3)n2)c(-c2ccccn2)n1 [Compound I-150, N-(1-(2-(2-methoxyethoxy)ethyl)-3-(pyridin-2-yl)-1H-pyrazol-4-yl)-6-(1H-pyrazol-3-yl)picolinamide formate] | 5.47 | 7.18 | – | –
COCCOCCn1cc(NC(=O)c2cccc(-c3ccoc3)n2)c(-c2ccccn2)n1 [Compound I-151, 6-(furan-3-yl)-N-(1-(2-(2-methoxyethoxy)ethyl)-3-(pyridin-2-yl)-1H-pyrazol-4-yl)picolinamide 2,2,2-trifluoroacetate] | 5.10 | 5.38 | – | –
COCCOCCn1cc(NC(=O)c2cccc(-c3ccco3)n2)c(-c2ccccn2)n1 [Compound I-152, 6-(furan-2-yl)-N-(1-(2-(2-methoxyethoxy)ethyl)-3-(pyridin-2-yl)-1H-pyrazol-4-yl)picolinamide 2,2,2-trifluoroacetate] | 4.91 | 4.85 | – | –

Further compounds by rising pEC50 (IL-23p19; THP-1, THP-1 cells), results first:

pEC50 (IL-23p19; THP-1, THP-1 cells) | pEC50 (IL-23 (p19/p40)) | Structure (SMILES) | pEC50 (IL-23p19; THP-1 cells) | pEC50 (IL-23 (p19/p40); Homo sapiens)
5.90 | 5.66 | Cn1cc(-c2cccc(C(=O)Nc3cn(C4COC4)nc3-c3ccccn3)n2)cn1 [Compound I-134, 6-(1-methyl-1H-pyrazol-4-yl)-N-(1-(oxetan-3-yl)-3-(pyridin-2-yl)-1H-pyrazol-4-yl)picolinamide] | – | –
5.92 | 5.85 | COCCOCCn1cc(NC(=O)c2cccc(-c3cncc(C)c3)n2)c(-c2ccccn2)n1 [Compound I-149, N-(1-(2-(2-methoxyethoxy)ethyl)-3-(pyridin-2-yl)-1H-pyrazol-4-yl)-5′-methyl-[2,3′-bipyridine]-6-carboxamide formate] | – | –
5.97 | 5.74 | Cc1cncc(-c2cncc(C(=O)Nc3cn(C)nc3-c3ccccn3)n2)c1 [Compound I-121, N-(1-methyl-3-(pyridin-2-yl)-1H-pyrazol-4-yl)-6-(5-methylpyridin-3-yl)pyrazine-2-carboxamide] | – | –
6.04 | 6.13 | Cn1cc(NC(=O)c2cncc(-c3cc[nH]n3)n2)c(-c2ccccn2)n1 [Compound I-123, N-(1-methyl-3-(pyridin-2-yl)-1H-pyrazol-4-yl)-6-(1H-pyrazol-3-yl)pyrazine-2-carboxamide] | – | –
6.06 | 5.42 | Cn1cc(NC(=O)c2cncc(-c3cn[nH]c3)n2)c(-c2ccccn2)n1 [Compound I-122, N-(1-methyl-3-(pyridin-2-yl)-1H-pyrazol-4-yl)-6-(1H-pyrazol-4-yl)pyrazine-2-carboxamide] | – | –
6.12 | 5.59 | COCCOCCn1cc(NC(=O)c2cccc(-c3ccc(N)nc3)n2)c(-c2ccccn2)n1 [Compound I-142, 6′-amino-N-(1-(2-(2-methoxyethoxy)ethyl)-3-(pyridin-2-yl)-1H-pyrazol-4-yl)-[2,3′-bipyridine]-6-carboxamide formate] | – | –
6.33 | 6.70 | Cc1cc(-c2cccc(C(=O)Nc3cn(C4COC4)nc3-c3ccccn3)n2)[nH]n1 [Compound I-136, 6-(3-methyl-1H-pyrazol-5-yl)-N-(1-(oxetan-3-yl)-3-(pyridin-2-yl)-1H-pyrazol-4-yl)picolinamide] | – | –
6.49 | 5.89 | O=C(Nc1cn(C2COC2)nc1-c1ccccn1)c1cccc(-c2cccnc2)n1 [Compound I-112, N-(1-(oxetan-3-yl)-3-(pyridin-2-yl)-1H-pyrazol-4-yl)-[2,3′-bipyridine]-6-carboxamide] | – | –
6.67 | 6.85 | O=C(Nc1cn(C2COC2)nc1-c1ccccn1)c1cccc(-c2cn[nH]c2)n1 [Compound I-116, N-(1-(oxetan-3-yl)-3-(pyridin-2-yl)-1H-pyrazol-4-yl)-6-(1H-pyrazol-4-yl)picolinamide] | – | –
6.81 | 7.00 | O=C(Nc1cn(C2COC2)nc1-c1ccccn1)c1cccc(-c2cc[nH]n2)n1 [Compound I-117, N-(1-(oxetan-3-yl)-3-(pyridin-2-yl)-1H-pyrazol-4-yl)-6-(1H-pyrazol-3-yl)picolinamide] | – | –
